{"source": "patent US8637684B2", "about": "“Tautomycetin and tautomycetin analog biosynthesis” (Wisconsin Alumni Research Foundation, priority 2010, dated 2014)", "key": {"HePTP": {"molecular_target": "T1, HePTP (Homo sapiens, UniProt P35236)", "T1 sequence (P35236 1-360)": "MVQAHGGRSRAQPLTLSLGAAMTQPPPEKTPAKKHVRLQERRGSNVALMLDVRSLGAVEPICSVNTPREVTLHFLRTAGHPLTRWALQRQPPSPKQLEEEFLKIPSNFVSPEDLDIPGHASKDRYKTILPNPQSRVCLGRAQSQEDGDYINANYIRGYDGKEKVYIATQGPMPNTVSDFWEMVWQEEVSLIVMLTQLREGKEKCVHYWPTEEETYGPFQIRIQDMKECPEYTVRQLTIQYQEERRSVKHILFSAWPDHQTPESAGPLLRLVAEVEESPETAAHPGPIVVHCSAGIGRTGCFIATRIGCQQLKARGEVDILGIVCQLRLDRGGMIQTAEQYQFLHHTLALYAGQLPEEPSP", "experiment": "PTP activity assay with pNPP as substrate: HePTP", "assay_type": "biochemical", "details": "pNPP as substrate at Km, pH 7.0, 25° C., I = 0.15 M", "method": "(§1) The PTP activity was assayed using pNPP as a substrate at 25° C. in 50 mM 3,3-dimethylglutarate buffer, pH 7.0, containing 1 mM EDTA with an ionic strength of 0.15 M adjusted by NaCl. TTM, TTN and the engineered analogs were analyzed for inhibition of a panel of PTPs at 10 μM compound concentration. For each enzyme screened, test compounds were diluted to 20 μM in 100 μL and combined with 50 μL pNPP at a concentration of 4×Km. The reaction was initiated by the addition of 50 μL of 4× concentrated enzyme and pNPP was allowed to convert to the product p-nitrophenol. The reaction was quenched by the addition of 50 μL of 5N NaOH. Nonenzymatic hydrolysis of pNPP was corrected by measuring the control without the addition of enzyme. Production of p-nitrophenol was monitored by a Spectra MAX385 microplate spectrophotometer (Molecular Devices) at 405 nm using a molar extinction coefficient of 18,000 M^−1 cm^−1. IC50 values were calculated by fitting the absorbance at 405 nm versus inhibitor concentration to the following equation: AI/A0=IC50/(IC50+[I]) where AI is the absorbance at 405 nm of the sample in the presence of inhibitor; Ao is the absorbance at 405 nm in the absence of inhibitor; and [I] is the concentration of the inhibitor."}, "Cdc14A": {"molecular_target": "T2, Cdc14A (Homo sapiens, UniProt Q9UNH5)", "T2 sequence (Q9UNH5 1-594)": "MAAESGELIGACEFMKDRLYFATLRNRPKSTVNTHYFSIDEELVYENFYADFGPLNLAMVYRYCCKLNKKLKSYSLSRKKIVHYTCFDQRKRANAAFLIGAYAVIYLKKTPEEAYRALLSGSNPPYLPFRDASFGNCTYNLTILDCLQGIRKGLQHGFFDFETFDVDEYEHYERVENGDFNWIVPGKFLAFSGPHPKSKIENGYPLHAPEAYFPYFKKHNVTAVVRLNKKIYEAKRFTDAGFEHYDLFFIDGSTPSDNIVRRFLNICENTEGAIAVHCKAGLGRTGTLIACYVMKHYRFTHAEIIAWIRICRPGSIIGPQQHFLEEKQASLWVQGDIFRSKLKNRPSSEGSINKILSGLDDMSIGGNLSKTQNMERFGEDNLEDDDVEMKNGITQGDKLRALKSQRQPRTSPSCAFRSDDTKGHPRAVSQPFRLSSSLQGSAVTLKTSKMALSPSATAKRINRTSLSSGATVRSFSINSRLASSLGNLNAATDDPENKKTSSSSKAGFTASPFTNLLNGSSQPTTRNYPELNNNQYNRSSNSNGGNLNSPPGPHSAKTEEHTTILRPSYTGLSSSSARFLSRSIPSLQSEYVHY", "experiment": "PTP activity assay with pNPP as substrate: Cdc14A", "assay_type": "biochemical", "details": "pNPP as substrate at Km, pH 7.0, 25° C., I = 0.15 M", "method": "as §1"}, "[1]": {"system": "hematopoietic progenitors (MIEG3, wild-type SHP2, SHP2/E76K)", "experiment": "Methylcellulose-based colony assay of transduced bone marrow LDMNCs (CFU-M / CFU-GM)", "assay_type": "cell-based", "details": "2 μM TTN, GM-CSF 1 ng/mL, 7 days", "procedure": "Transduced, EGFP+ cells were subjected to ^3H-thymidine incorporation assays, as previously described (Munugalavadla et al., 2007), or plated at a concentration of 8000 cells/mL in 0.9% methylcellulose-based media containing IMDM, 2 mM glutamine, 1% penicillin/streptomycin, 80 μM β-mercaptoethanol, 30% FBS, and GM-CSF 1 ng/mL or with saturating concentrations of growth factors including IL-3 200 U/mL, erythropoietin 4 U/mL, and stem cell factor (SCF) 100 ng/mL. All growth factors were from Peprotech. Cultures were incubated in a humidified incubator at 37° C. in 5% CO2 for 7 days and were scored for total colonies and for morphology to determine colony forming unit (CFU)-granulocyte-macrophage (GM) or CFU-monocyte (M).\nFor biochemical studies, macrophage progenitor cells expressing empty vector (MIEG3), wild-type SHP2, or SHP2/E76K were serum- and growth factor-deprived for 24 hours. Cells were pre-treated with DMSO or 2 μM TTN for 2 hours, and then cultures either remained unstimulated or were stimulated with GM-CSF at 50 ng/mL for 60 minutes. […] To provide further evidence that SHP2 is a molecular target of TTN, the inventors determined the X-ray crystal structure of SHP2 in complex with TTN D-1, as crystallization attempts for the SHP2-TTN complex were unsuccessful. […]"}, "PP1": {"system": "PP1", "details": "cited from earlier work"}}, "data": [{"substance": "tautomycetin [TTN]", "values": [{"measurement": "IC50", "setting": "HePTP", "value": "> 50", "unit": "µM"}, {"measurement": "IC50", "setting": "Cdc14A", "value": "> 50", "unit": "µM"}, {"measurement": "development of CFU-M", "setting": "[1]", "value": "reduced in all cells types"}, {"measurement": "preferential inhibition of PP1 relative to PP2A", "setting": "PP1; literature (Mitsuhashi et al., 2001)", "value": "about 40 fold"}, {"measurement": "IC50", "setting": "PP1; literature values", "value": 1.6, "unit": "nM"}]}]}
